Publication PMC6629894, “Ruthenium Complexes Containing Heterocyclic Thioamidates Trigger Caspase-Mediated Apoptosis Through MAPK Signaling in Human Hepatocellular Carcinoma Cells” (Frontiers in Oncology, 2019)

Assays:
[1] = system: cancer cells with different histological types; test: Cytotoxicity, summary over the panel of cancer cells; format: cell-based; conditions: read-out: IC50 values against cancer cells (summary)
Procedure: (§1) Cytotoxicity was measured colorimetrically using an Alamar blue method that was performed as previously described ([20], [21]). Cells were seeded in 96-well plates for all experiments (7 × 10^4 cells/mL for adherent cells or 3 × 10^5 cells/mL for suspension cells in 100 μL of medium) and incubated overnight at 37°C with 5% CO2 to allow for adherence. The complexes were dissolved in 0.5% dimethyl sulfoxide (DMSO, Vetec Química Fina) at eight different concentrations from 0.19 to 25 μg/mL and were added to each well and incubated for 72 h. The negative control was treated with the vehicle (0.5% DMSO) that was used to solubilize and dilute the complexes. […] Four (for cell lines) or 24 h (for PBMCs) before the end of incubation, 20 μL of a stock solution (0.312 mg/mL) of resazurin (Sigma-Aldrich Co.) was added to each well. Absorbance was measured at 570 and 600 nm using a SpectraMax 190 Microplate Reader (Molecular Devices, Sunnyvale, CA, USA).

p38 MAPK (pT180/pY182) = test: Phosflow analysis of phosphorylated MAPK; format: cell-based, human; conditions: HepG2, 10 μM
Procedure: (§2) Phosphorylated extracellular signal-regulated kinase (ERK), JNK/SAPK and p38 MAPK were quantified by flow cytometry as previously described ([26]). The cells were collected and resuspended in 0.5–1 mL of 4% formaldehyde and fixed for 10 min at 37°C. Then, the tubes were chilled on ice for 1 min. The cells were permeabilized by slowly adding ice-cold 100% methanol to the cooled cells while gently vortexing to a final concentration of 90% methanol and incubating for 30 min on ice. After washing with incubation buffer (0.5% bovine serum albumin in PBS), PE mouse anti-JNK/SAPK (pT183/pY185) (ID 562480), PE mouse anti-p38 MAPK (pT180/pY182) (ID 612565), PE mouse anti-ERK1/2 (pT202/pY204) (ID 612566) or PE mouse IgG1,κ isotype control (ID 555749) antibodies, all from BD Biosciences, were added and incubated for 1 h at room temperature. Finally, the cells were washed with PBS, and the cell fluorescence was measured by flow cytometry.
(§3) For all flow cytometry analyses, at least 10^4 events were recorded per sample using a BD LSRFortessa cytometer, BD FACSDiva Software (BD Biosciences) and FlowJo Software 10 (FlowJo Lcc; Ashland, OR, USA). Cellular debris was omitted from the analysis.

JNK/SAPK (pT183/pY185) = test: Phosflow analysis of phosphorylated MAPK; format: cell-based, human; conditions: HepG2, 10 μM
Procedure: as §2, §3

[2] = system: HepG2 cells engrafted in C.B-17 SCID mice; test: Human hepatocellular carcinoma xenograft model; format: in vivo; conditions: for mean tumor mass: 21 days (negative control 0.6 ± 0.1 g); for tumor mass inhibition rates: 0.5 and 1 mg/kg/day i.p.
Procedure: A total of 64 C.B-17 severe-combined immunodeficiency (SCID) mice (females, 25–30 g) were obtained and maintained at the animal facilities from Gonçalo Moniz Institute-FIOCRUZ (Salvador, Bahia, Brazil). Animals were housed in cages with free access to food and water. All animals were kept under a 12:12-h light-dark cycle (lights on at 6:00 a.m.). The animals were treated according to the ethical principles for animal experimentation of SBCAL (Brazilian Association of Laboratory Animal Science), Brazil. The Animal Ethics Committee of Gonçalo Moniz Institute–FIOCRUZ (Salvador, Bahia, Brazil) approved the experimental protocol (number 06/2015). Animal welfare was monitored throughout the study, and the pain and suffering were minimized.

human topoisomerase IB = system: human topoisomerase IB; design: method as in PMID 26795676; conditions: ref [18], [19]; cited from earlier work
[3] = system: HL-60 (human promyelocytic leukemia); test: Alamar blue cytotoxicity assay, 72 h; format: cell-based
Description: (§4) The cell lines HepG2 (human hepatocellular carcinoma), HL-60 (human promyelocytic leukemia), K-562 (human chronic myelogenous leukemia), B16-F10 (mouse melanoma), MCF-7 (human breast carcinoma), HCT116 (human colon carcinoma), HSC-3 (human oral squamous cell carcinoma), SCC-4 (human oral squamous cell carcinoma), MRC-5 (human lung fibroblast), WT SV40 MEF (wild-type immortalized mouse embryonic fibroblast), and BAD KO SV40 MEF (BAD gene knockout immortalized mouse embryonic fibroblasts) were obtained from the American Type Culture Collection (ATCC, Manassas, VA, USA). Cells were cultured in RPMI 1640 medium (Gibco-BRL, Gaithersburg, MD, USA) with 10% fetal bovine serum (Life, Carlsbad, CA, USA), 2 mM L-glutamine (Vetec Química Fina, Duque de Caxias, RJ, Brazil) and 50 μg/mL gentamycin (Life). For all experiments, adherent cells were collected by treatment with 0.25% trypsin-EDTA solution (Gibco-BRL). All cell lines were cultured in flasks at 37°C in 5% CO2 and were subcultured every 3–4 days to maintain exponential growth. All cell lines were tested for mycoplasma using a mycoplasma staining kit (Sigma-Aldrich Co.) to validate that the cells that were used were free from contamination.
as §1

[4] = system: SCC-4 (human oral squamous cell carcinoma); test: Alamar blue cytotoxicity assay, 72 h; format: cell-based
Description: as §4, §1

[5] = system: MCF-7 (human breast carcinoma); test: Alamar blue cytotoxicity assay, 72 h; format: cell-based
Description: as §4, §1

[6] = system: HCT116 (human colon carcinoma); test: Alamar blue cytotoxicity assay, 72 h; format: cell-based
Description: as §4, §1

[7] = system: HSC-3 (human oral squamous cell carcinoma); test: Alamar blue cytotoxicity assay, 72 h; format: cell-based
Description: as §4, §1

HepG2 cells [8] = test: DNA content: internucleosomal DNA fragmentation and cell cycle distribution by flow cytometry; format: cell-based, human; conditions: 24 and 48 h
Procedure: (§5) For all subsequent in vitro experiments, 2 mL of a suspension of HepG2 cells were seeded (7 × 10^4 cells/mL) and incubated in a 24-well plate overnight to allow the cells to adhere to the plate surface.
In this assay, cells were harvested in a permeabilization solution containing 0.1% Triton X-100, 2 μg/mL propidium iodide, 0.1% sodium citrate and 100 μg/mL RNAse (all from Sigma-Aldrich Co.) and incubated in the dark for 15 min at room temperature.
as §3

HepG2 cells [9] = test: Cell morphology: May-Grunwald-Giemsa staining and light scattering; format: cell-based, human; conditions: 24 and 48 h
Procedure: as §5
To evaluate alterations in the morphology, cells were cultured on a coverslip and stained with May-Grunwald-Giemsa. Morphological changes were examined by light microscopy (Olympus BX41) using Image-Pro software (Media Cybernetics).

Compound | IC50 [1] [µM] | mean tumor mass ([2]; 0.5 mg/kg/day i.p.) [g] | mean tumor mass ([2]; 1 mg/kg/day i.p.) [g] | tumor mass inhibition rates ([2]; 21 days) | supercoiled DNA relaxation mediated by human topoisomerase IB (human topoisomerase IB) | Selectivity index (SI = IC50 [noncancerous cells]/IC50 [cancer cells]) ([3]; MRC-5 vs HL-60) | Selectivity index (SI = IC50 [noncancerous cells]/IC50 [cancer cells]) ([3]; PBMCs vs HL-60) | Selectivity index (SI = IC50 [noncancerous cells]/IC50 [cancer cells]) ([4]; MRC-5 vs SCC-4) | Selectivity index (SI = IC50 [noncancerous cells]/IC50 [cancer cells]) ([4]; PBMCs vs SCC-4) | Selectivity index (SI = IC50 [noncancerous cells]/IC50 [cancer cells]) ([5]; MRC-5 vs MCF-7) | Selectivity index (SI = IC50 [noncancerous cells]/IC50 [cancer cells]) ([5]; PBMCs vs MCF-7) | Selectivity index (SI = IC50 [noncancerous cells]/IC50 [cancer cells]) ([6]; MRC-5 vs HCT116) | Selectivity index (SI = IC50 [noncancerous cells]/IC50 [cancer cells]) ([6]; PBMCs vs HCT116) | Selectivity index (SI = IC50 [noncancerous cells]/IC50 [cancer cells]) ([7]; MRC-5 vs HSC-3) | Selectivity index (SI = IC50 [noncancerous cells]/IC50 [cancer cells]) ([7]; PBMCs vs HSC-3) | also measured
Cn1ccnc1[S-].F[P-](F)(F)(F)(F)F.[Ru+2].c1ccc(-c2ccccn2)nc1.c1ccc(P(CCCCP(c2ccccc2)c2ccccc2)c2ccccc2)cc1 [Complex 1, [Ru(mmi)(bipy)(dppb)]PF6] | < 10 | 0.4 ± 0.1 | 0.3 ± 0.1 | 31.5–45.4% | inhibit the supercoiled DNA relaxation |  |  |  |  |  |  |  |  |  |  | phosphorylation of p38 MAPK (p38 MAPK (pT180/pY182)): no significant increase; phosphorylation of JNK/SAPK (JNK/SAPK (pT183/pY185)): no significant increase
F[P-](F)(F)(F)(F)F.[Ru+2].[S-]C1=NCCS1.c1ccc(-c2ccccn2)nc1.c1ccc(P(CCCCP(c2ccccc2)c2ccccc2)c2ccccc2)cc1 [Complex 2, [Ru(tzdt)(bipy)(dppb)]PF6] | < 10 | 0.3 ± 0.1 | 0.2 ± 0.1 | 46.9–67.7% | inhibit the supercoiled DNA relaxation | 1.5 | 2.4 | 0.4 | 0.7 | 0.2 | 0.4 | 0.6 | 1.0 | 0.7 | 1.2 | IC50 ([5]; read-out: IC50 and 95% CI, MCF-7, 72 h): 7.3 µM; fibrosis in tumor histology ([2]; 1 mg/kg/day): most evident fibrosis
COc1cccc2c1C(=O)c1c(O)c3c(c(O)c1C2=O)C[C@@](O)(C(=O)CO)C[C@@H]3O[C@H]1C[C@H](N)[C@H](O)[C@H](C)O1 [Doxorubicin, reference compound] |  |  |  |  |  | 2.0 | 12.5 | 0.1 | 0.6 | 1.0 | 6.3 | 1.3 | 8.3 | 0.8 | 5.0 | IC50 ([4]; Homo sapiens, SCC-4, 72 h, read-out: IC50 and 95% CI): 4 µM; cell cycle distribution (HepG2 cells [8]; 2 μM): cell cycle arrest at the G2/M phase; internucleosomal DNA fragmentation (sub-G0/G1) (HepG2 cells [8]): DNA fragmentation; cell morphology (HepG2 cells [9]): apoptosis-related morphological alterations; reduction of tumor weight vs negative control ([2]; 0.3 mg/kg/day i.p., 21 days): 36.8%
